Source: PubChem BioAssay AID256 (DTP/NCI, 2004)
Where “and” joins values, the source holds several entries; their conditions need not be identical. Identical values can stand only once. Toxic doses and inconclusive results are not listed.

System: CD2F1 mice, L1210 leukemia ip, survival T/C
Test: NCI In Vivo Anticancer Drug Screen. Data for tumor model L1210 Leukemia (intraperitoneal) in CD2F1 (CDF1) mice
Settings: endpoint: mean survival time, higher = longer survival
In short: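 In this screen, transplantable tumors were grown in mice given either the compound or its vehicle. Results were expressed as the treated measurement relative to the control measurement.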

[1] = dose: 12.5 mg/kg/injection, schedule: Q01DX009 (ip), vehicle: saline
[2] = dose: 25.0 mg/kg/injection, schedule: Q01DX009 (ip), vehicle: saline
[3] = dose: 50.0 mg/kg/injection, schedule: Q01DX009 (ip), vehicle: saline
[4] = dose: 100.0 mg/kg/injection, schedule: Q04DX003 (ip), vehicle: saline with Tween-80
[5] = dose: 200.0 mg/kg/injection, schedule: Q04DX003 (ip), vehicle: saline with Tween-80
[6] = dose: 400.0 mg/kg/injection, schedule: Q04DX003 (ip), vehicle: saline with Tween-80
[7] = dose: 50.0 mg/kg/injection, schedule: Q01DX009 (ip), vehicle: saline with Tween-80
[8] = dose: 100.0 mg/kg/injection, schedule: Q01DX009 (ip), vehicle: saline with Tween-80
[9] = dose: 200.0 mg/kg/injection, schedule: Q01DX009 (ip), vehicle: saline with Tween-80
[10] = dose: 100.0 mg/kg/injection, schedule: Q01DX001 (ip), vehicle: saline with Tween-80
[11] = dose: 200.0 mg/kg/injection, schedule: Q01DX001 (ip), vehicle: saline with Tween-80
[12] = dose: 50.0 mg/kg/injection, schedule: Q01DX001 (ip), vehicle: saline with Tween-80
[13] = dose: 100.0 mg/kg/injection, schedule: Q04DX003 (ip), vehicle: saline
[14] = dose: 200.0 mg/kg/injection, schedule: Q04DX003 (ip), vehicle: saline
[15] = dose: 400.0 mg/kg/injection, schedule: Q04DX003 (ip), vehicle: saline

OC(CF)CF
T/C [1]: 106 % of control | T/C [2]: 118 % of control

Clc1ccc2scc3c4ccccc4nc-3c2c1
T/C [2]: 104 % of control | T/C [3]: 101 % of control

Cc1c2cnccc2c(C)c2c1c1ccccc1n2CCNCc1ccccc1
T/C [4]: 105 % of control | T/C [5]: 107 % of control

CN(C)c1ccc(/C=N\O)c2c1CCC2
T/C [4]: 102 % of control | T/C [5]: 102 % of control | T/C [6]: 100 % of control

COc1cc(Cl)ccc1NC(=O)OCCOc1c(C(C)C)cccc1C(C)C
T/C [7]: 101 % of control | T/C [8]: 101 % of control | T/C [9]: 89 % of control

Cc1c(NC(=O)Nc2ccc(C3=NCCCN3)cc2)cccc1NC(=O)Nc1ccc(C2=NCCCN2)cc1
T/C (dose: 125.0 mg/kg/injection, schedule: Q01DX Z (ip), vehicle: water): 162 % of control | T/C (dose: 250.0 mg/kg/injection, schedule: Q01DX Z (ip), vehicle: water): 177 % of control | T/C (dose: 500.0 mg/kg/injection, schedule: Q01DX Z (ip), vehicle: water): 224 % of control

Cn1ccccc1=S
T/C [10]: 108 % of control | T/C [11]: 107 % of control | T/C (dose: 400.0 mg/kg/injection, schedule: Q01DX001 (ip), vehicle: saline with Tween-80): 103 % of control

O=[N+]([O-])c1ccc2c(c1)S(=O)c1cc([N+](=O)[O-])c(Br)cc1-2 (centres undefined) (tested in a mixture with another compound)
T/C (dose: 50.0 mg/kg/injection, schedule: Q04DX002 (ip), vehicle: saline with Tween-80): 108 % of control | T/C (dose: 100.0 mg/kg/injection, schedule: Q04DX002 (ip), vehicle: saline with Tween-80): 108 % of control | T/C (dose: 200.0 mg/kg/injection, schedule: Q04DX002 (ip), vehicle: saline with Tween-80): 102 % of control

CO[C@H](C(=O)[C@@H](O)[C@@H](C)O)[C@@H]1Cc2cc3cc(OC4CC(OC5CC(O)C(O)C(C)O5)C(O)C(C)O4)c(C)c(O)c3c(O)c2C(=O)[C@H]1OC1CC(OC2CC(OC3CC(C)(O)C(O)C(C)O3)C(O)C(C)O2)C(O)C(C)O1 (some centres undefined)
T/C (dose: 0.13 mg/kg/injection, schedule: Q01DX009 (ip), vehicle: saline): 95 % of control and 97 % of control and 101 % of control | T/C (dose: 0.25 mg/kg/injection, schedule: Q01DX009 (ip), vehicle: saline): 95 % of control and 97 % of control and 103 % of control | T/C (dose: 0.5 mg/kg/injection, schedule: Q01DX009 (ip), vehicle: saline): 93 % of control and 100 % of control and 105 % of control | T/C (dose: 0.5 mg/kg/injection, schedule: Q01DX Z (ip), vehicle: saline): 124 % of control | T/C (dose: 1.0 mg/kg/injection, schedule: Q01DX009 (ip), vehicle: saline): 101 % of control and 104 % of control and 107 % of control

O=C(O)C(Cl)C(Cl)c1ccccc1 (centres undefined)
T/C (dose: 100.0 mg/kg/injection, schedule: Q04DX002 (ip), vehicle: saline): 90 % of control | T/C (dose: 200.0 mg/kg/injection, schedule: Q04DX002 (ip), vehicle: saline): 94 % of control | T/C (dose: 400.0 mg/kg/injection, schedule: Q04DX002 (ip), vehicle: saline): 94 % of control

N#CSCc1cc(=O)c(O)co1
T/C (dose: 6.25 mg/kg/injection, schedule: Q04DX003 (ip), vehicle: saline with Tween-80): 104 % of control | T/C (dose: 12.5 mg/kg/injection, schedule: Q04DX003 (ip), vehicle: saline with Tween-80): 94 % of control

CC1CC(OC(=O)c2ccccc2)CCC1=O (centres undefined)
T/C (dose: 5.0 mg/kg/injection, schedule: Q01DX001 (ip), vehicle: other): 102 % of control | T/C (dose: 10.0 mg/kg/injection, schedule: Q01DX001 (ip), vehicle: other): 106 % of control | T/C (dose: 20.0 mg/kg/injection, schedule: Q01DX001 (ip), vehicle: other): 103 % of control | T/C (dose: 40.0 mg/kg/injection, schedule: Q01DX001 (ip), vehicle: other): 108 % of control | T/C (dose: 80.0 mg/kg/injection, schedule: Q01DX001 (ip), vehicle: other): 96 % of control

Cc1c(Cl)cccc1NS(=O)(=O)c1ccccc1
T/C [8]: 108 % of control | T/C [4]: 92 % of control | T/C [9]: 103 % of control | T/C [5]: 99 % of control | T/C (dose: 400.0 mg/kg/injection, schedule: Q01DX009 (ip), vehicle: saline with Tween-80): 103 % of control | T/C [6]: 99 % of control

Oc1ccc(O)c2c1C1(Cl)C(Cl)=C(Cl)C2(Cl)C1(Cl)Cl
T/C (dose: 100.0 mg/kg/injection, schedule: Q01DX009 (ip), vehicle: other): 95 % of control | T/C (dose: 200.0 mg/kg/injection, schedule: Q01DX009 (ip), vehicle: other): 98 % of control | T/C (dose: 400.0 mg/kg/injection, schedule: Q01DX009 (ip), vehicle: other): 106 % of control

CC1=CC(C)(N=[N+]=[N-])CC(C)(C)C1 (centres undefined)
T/C (dose: 37.5 mg/kg/injection, schedule: Q01DX009 (ip), vehicle: saline): 97 % of control | T/C (dose: 75.0 mg/kg/injection, schedule: Q01DX009 (ip), vehicle: saline): 97 % of control

O=C(O)c1cc2ccccc2cn1
T/C [3]: 108 % of control | T/C (dose: 100.0 mg/kg/injection, schedule: Q01DX009 (ip), vehicle: saline): 95 % of control

CCOc1cc(/C=N/NC(=O)C[n+]2ccccc2)ccc1O
T/C (dose: 25.0 mg/kg/injection, schedule: Q01DX009 (ip), vehicle: saline with Tween-80): 99 % of control | T/C [7]: 103 % of control | T/C [8]: 99 % of control

CCOC(=O)N/N=C/c1cc(Cl)cc(Cl)c1O
T/C [12]: 111 % of control | T/C [10]: 98 % of control | T/C [11]: 90 % of control

c1ccc(CC2=NCCO2)cc1
T/C [13]: 100 % of control | T/C [14]: 95 % of control | T/C [15]: 98 % of control

CCC(C)(O)C(C)N(C)c1ccccc1 (centres undefined)
T/C [13]: 102 % of control and 97 % of control | T/C [14]: 102 % of control and 100 % of control | T/C [15]: 102 % of control and 106 % of control

O=c1[nH]cnc2c1ccn2C1OC(CO)C(O)C1O (centres undefined)
T/C (dose: 6.25 mg/kg/injection, schedule: Q01DX009 (ip), vehicle: saline): 111 % of control | T/C (dose: 6.25 mg/kg/injection, schedule: Q04DX003 (ip), vehicle: saline sonified): 106 % of control | T/C [1]: 90 % of control | T/C (dose: 12.5 mg/kg/injection, schedule: Q04DX003 (ip), vehicle: saline sonified): 109 % of control | T/C (dose: 16.7 mg/kg/injection, schedule: Q04DX003 (ip), vehicle: saline sonified): 121 % of control | T/C (dose: 25.0 mg/kg/injection, schedule: Q04DX003 (ip), vehicle: saline sonified): 113 % of control | T/C (dose: 37.5 mg/kg/injection, schedule: Q04DX003 (ip), vehicle: saline sonified): 119 % of control

NC/C(=N\Nc1ccc([N+](=O)[O-])cc1[N+](=O)[O-])c1ccccc1
T/C [13]: 103 % of control | T/C [14]: 100 % of control | T/C [15]: 97 % of control

O=C(O)C1C2CCCCC2=C2CCCCC2C1C(=O)O (centres undefined)
T/C [8]: 98 % of control | T/C [9]: 104 % of control

CN(C)C1CCCCC1[N+](C)(C)C (centres undefined)
T/C (dose: 5.0 mg/kg/injection, schedule: Q01DX009 (ip), vehicle: saline): 101 % of control | T/C (dose: 5.0 mg/kg/injection, schedule: Q04DX003 (ip), vehicle: saline): 104 % of control | T/C (dose: 10.0 mg/kg/injection, schedule: Q01DX009 (ip), vehicle: saline): 107 % of control | T/C (dose: 10.0 mg/kg/injection, schedule: Q04DX003 (ip), vehicle: saline): 101 % of control | T/C (dose: 20.0 mg/kg/injection, schedule: Q01DX009 (ip), vehicle: saline): 104 % of control | T/C (dose: 20.0 mg/kg/injection, schedule: Q04DX003 (ip), vehicle: saline): 98 % of control

C=CCNC(=O)C[n+]1cccc(C(=O)Nc2ccccc2)c1
T/C [4]: 97 % of control

C#CC(OC(=O)NC(CCSC)C(=O)OC)(c1ccccc1)c1ccccc1 (centres undefined)
T/C (dose: 25.0 mg/kg/injection, schedule: Q01DX001 (ip), vehicle: saline with Tween-80): 102 % of control | T/C [12]: 94 % of control | T/C [10]: 102 % of control

NC1CCCCC1N.NC1CCCCC1N.[Cl-].[Cu+] (centres undefined)
T/C (dose: 1.56 mg/kg/injection, schedule: Q04DX002 (ip), vehicle: saline): 97 % of control | T/C (dose: 3.13 mg/kg/injection, schedule: Q04DX002 (ip), vehicle: saline): 97 % of control | T/C (dose: 6.25 mg/kg/injection, schedule: Q04DX002 (ip), vehicle: saline): 97 % of control

CN(C)CC1CCCC12OCCO2 (centres undefined)
T/C (dose: 75.0 mg/kg/injection, schedule: Q01DX001 (ip), vehicle: other): 100 % of control | T/C (dose: 150.0 mg/kg/injection, schedule: Q01DX001 (ip), vehicle: other): 96 % of control | T/C (dose: 300.0 mg/kg/injection, schedule: Q01DX001 (ip), vehicle: other): 106 % of control
